Experimental data published in patent US4348388A, “11-Amino-11-deoxydaunorubicin and analogs” (G.D. Searle & Co., priority 1980, dated 1982).
Values after ≈ are worked out from the molar mass of the structure shown. Like-named read-outs stand apart in the source and are kept apart here.

What was measured:
L-1210 leukemia = experiment: Antineoplastic activity against L-1210 leukemia (single i.v. dose, survival vs control mice); format: in vivo, BDF1 male mice; details: single i.v. dose 24 hours after i.v. implant of 10^5 L-1210 cells; at optimum dose (Adriamycin 33.6, Ex. XII 27, 4-Demethoxydaunorubicin 4.5 μmoles/kg); ten mice per group
Procedure: The antineoplastic activity of the compounds of this invention was first established against L-1210 leukemia. The relative activities against the L-1210 leukemia and the L cell cytotoxicity was determined and compared to that of adriamycin.
Donor mice were implanted with L-1210 leukemia cells i.p. On the sixth day following implant, the mice were sacrificed. Tumor cells were collected from the peritoneal cavity, suspended in saline solution, and 10^5 cells per mouse were implanted i.v. into BDF1 male mice weighing 18-20 grams. Ten mice per treatment group were employed and the day of implantation considered as day 0. A single dose of test compound was administered by i.v. injection 24 hours following the implant of L-1210 tumor cells. The animals were observed and the survival pattern was compared with that of control mice which received the same tumor implant but were not treated with drug. Results are presented as %ILS (increase in life span over control animals) in Table 3 below.

L-cells = experiment: L-cell cytotoxicity; format: cell-based; details: 48 h
Procedure: Expotentially growing L-cells were treated with dilutions of Compound XII and adriamycin and ID50 (concentration of compounds giving 50% inhibition of cell growth) measured after 48 hours with the following results.

[1] = background; limits use; cited from earlier work
L-1210 leukemias = experiment: Activity against L-1210 leukemia by oral or intraperitoneal administration; format: in vivo
P-388 leukemias = experiment: Activity against P-388 leukemia by oral or intraperitoneal administration; format: in vivo
[2] = administered intraperitoneally, compared with intravenous

SMILES | % ILS (increase in life span over control animals) (L-1210 leukemia) [%] | Survivors at day 60 (L-1210 leukemia) | IC50 (L-cells; read-out: ID50 (concentration of compounds giving 50% inhibition of cell growth), Ex. 19, exponentially growing L-cells) [µg/mL] | IC50 (L-cells; read-out: ID50 (concentration of compounds giving 50% inhibition of cell growth), Ex. 20, exponentially growing L-cells) [µg/mL] | cardiac toxicity [1] | IC50 (L-cells; Ex. 19, exponentially growing L-cells, read-out: ID50 (concentration of compounds giving 50% inhibition of cell growth)) [µg/mL] | IC50 (L-cells; Ex. 20, exponentially growing L-cells, read-out: ID50 (concentration of compounds giving 50% inhibition of cell growth)) [µg/mL] | activity against L-1210 leukemia (L-1210 leukemias; [2]) | activity against L-1210 leukemia (L-1210 leukemias; administered orally) | activity against P-388 leukemia (P-388 leukemias; [2]) | activity against P-388 leukemia (P-388 leukemias; administered orally)
CC(=O)[C@]1(O)Cc2c(O)c3c(c(O)c2[C@@H](O[C@H]2C[C@H](N)[C@H](O)[C@H](C)O2)C1)C(=O)c1ccccc1C3=O [4-Demethoxydaunorubicin] | 83 | 0 |  |  |  |  |  |  |  |  | 
COc1cccc2c1C(=O)c1c(O)c3c(c(O)c1C2=O)C[C@@](O)(C(=O)CO)C[C@@H]3O[C@H]1C[C@H](N)[C@H](O)[C@H](C)O1 [Adriamycin] | 100 | 0 | 0.063 (≈ 0.116 µM) | 0.1 (≈ 0.184 µM) | cardiac toxicity |  |  |  |  |  | 
CC(=O)[C@]1(O)Cc2c(N)c3c(c(O)c2[C@@H](O[C@H]2C[C@H](N)[C@H](O)[C@H](C)O2)C1)C(=O)c1ccccc1C3=O [Compound XII, cis-9-acetyl-11-amino-7S-[(3-amino-2,3,6-trideoxy-α-L-lyxo-hexopyranosyl)oxy]-7,8,9,10-tetrahydro-6,9-dihydroxy-5,12-naphthacenedione chloride] | 96 | 0 |  |  |  | 0.01 | 0.015 | less active | inactive | less active | inactive
